# Laboratory results from patent US10508115B2, “Toll-like receptor 7 (TLR7) agonists having heteroatom-linked aromatic moieties, conjugates thereof, and methods and uses therefor” (BRISTOL-MYERS SQUIBB COMPANY, priority 2017, dated 2019).
# Molecular target: human TLR7 (Homo sapiens (Human), UniProt Q9NYK1)
# Test: HEK-Blue TLR7 reporter assay (TLR7 agonist activity)
# Type: cell-based
# Settings: HEK-Blue TLR7 cells, SEAP reporter, 18 h treatment; read-out: TLR7 Agonism (EC50)
# Protocol: This example describes a method for assaying TLR7 agonist activity of the compounds disclosed in this specification.
# HEK-Blue™ TLR7 cells were added to each well of a 384-well tissue-culture plate (15,000 cells per well) and incubated 16-18 h at 37° C., 5% CO2. Compounds (100 nl) were dispensed into wells containing the HEK-Blue™ TLR cells and the treated cells were incubated at 37° C., 5% CO2. After 18 h treatment ten microliters of freshly-prepared Quanti-Blue™ reagent (Invivogen) was added to each well, incubated for 30 min (37° C., 5% CO2) and SEAP levels measured using an Envision plate reader (OD=620 nm).
# Sequence of human TLR7 (Q9NYK1 27-1049): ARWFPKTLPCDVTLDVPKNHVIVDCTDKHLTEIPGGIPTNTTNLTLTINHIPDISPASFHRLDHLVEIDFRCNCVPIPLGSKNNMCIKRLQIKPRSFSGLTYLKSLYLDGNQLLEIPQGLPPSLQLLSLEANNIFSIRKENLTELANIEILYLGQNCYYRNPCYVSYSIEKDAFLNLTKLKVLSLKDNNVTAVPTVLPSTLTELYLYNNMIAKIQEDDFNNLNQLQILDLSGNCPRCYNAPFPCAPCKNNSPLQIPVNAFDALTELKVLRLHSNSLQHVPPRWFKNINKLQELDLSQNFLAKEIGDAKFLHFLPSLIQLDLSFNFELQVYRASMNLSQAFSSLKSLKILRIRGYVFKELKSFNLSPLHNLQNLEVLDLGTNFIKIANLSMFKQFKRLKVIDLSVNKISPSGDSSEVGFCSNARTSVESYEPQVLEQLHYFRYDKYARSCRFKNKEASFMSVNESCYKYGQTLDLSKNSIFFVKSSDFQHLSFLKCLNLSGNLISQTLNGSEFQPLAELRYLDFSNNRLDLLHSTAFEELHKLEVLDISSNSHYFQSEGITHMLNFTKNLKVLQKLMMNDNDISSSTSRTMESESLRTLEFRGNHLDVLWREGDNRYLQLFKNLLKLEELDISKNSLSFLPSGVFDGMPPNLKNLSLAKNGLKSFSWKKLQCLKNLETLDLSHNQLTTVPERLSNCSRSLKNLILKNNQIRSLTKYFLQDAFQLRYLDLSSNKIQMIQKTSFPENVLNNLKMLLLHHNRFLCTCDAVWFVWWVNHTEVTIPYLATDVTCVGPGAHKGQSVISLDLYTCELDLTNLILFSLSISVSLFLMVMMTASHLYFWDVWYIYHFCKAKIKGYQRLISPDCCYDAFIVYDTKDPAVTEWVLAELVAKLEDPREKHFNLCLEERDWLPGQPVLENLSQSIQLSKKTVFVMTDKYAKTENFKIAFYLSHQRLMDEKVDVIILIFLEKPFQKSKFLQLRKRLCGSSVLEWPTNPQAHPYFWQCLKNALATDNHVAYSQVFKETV
row,SMILES,EC50
1,CCCCOc1nc(N)c2nc(O)n(Cc3ccc(Oc4ccc(CNCCS(C)(=O)=O)cc4)c(F)c3)c2n1 [Ie-07],1.71 nM
2,CCCCOc1nc(N)c2nc(O)n(Cc3ccc(Oc4cccc(CNCCOC)n4)cc3)c2n1 [Ic-06],2.82 nM
3,CCCCOc1nc(N)c2nc(O)n(Cc3ccc(Oc4cccc(CNCCO)n4)cc3)c2n1 [Ic-05],0.871 nM
4,CCCCOc1nc(N)c2nc(O)n(Cc3ccc(Oc4ccc(CO)cc4)cc3)c2n1 [Ia-01],14 nM
5,CCCCOc1nc(N)c2nc(O)n(Cc3cccc(Oc4cccc(CNCc5ccncc5)c4)c3)c2n1 [IIa-11],431 nM
6,CCCCOc1nc(N)c2nc(O)n(Cc3ccc(Oc4ccc(CNC)cc4)cc3)c2n1 [Ia-02],1.3 nM
7,CCCCOc1nc(N)c2nc(O)n(Cc3cccc(Oc4cccc(CNC5CCOCC5)c4)c3)c2n1 [IIa-04],113 nM

# Now from value to compound:
row,EC50,SMILES
1,0.91 nM,CCCCOc1nc(N)c2nc(O)n(Cc3ccc(Oc4ccc(CNCCO)cc4)nc3)c2n1 [Ib-06]
2,1.3 nM,CCCCOc1nc(N)c2nc(O)n(Cc3ccc(Oc4ccc(CNCCOC)cc4)cc3)c2n1 [Ia-07]
3,0.62 nM,CCCCOc1nc(N)c2nc(O)n(Cc3ccc(Oc4ccc(CNCCOC)cc4)nc3)c2n1 [Ib-07]
4,0.83 nM,CCCCOc1nc(N)c2nc(O)n(Cc3ccc(Oc4ccc(CNC5CC5)cc4)nc3)c2n1 [Ib-17]

# Test system: IFN-α
# Test: not given
# Settings: fold less potent than corresponding purine-8-one compound; cited from earlier work
row,SMILES,"potency less than that of the corresponding purine-8-one compound, as measured by IFN-α induction"
1,"CCCCOc1nc(N)c2c(n1)N(Cc1cccc(CN3CCCC3)c1)CC(=O)N2 [Vesatolimod, vesatolimod]",100 ×

# Test system: interleukin 6 (IL-6)
# Test: Interleukin 6 induction assay in human whole blood
# Type: cell-based
# Settings: 37° C. for 20 h, AlphaLISA, read-out: IL6 Induction (EC50)
# Protocol: This example describes a method for assaying interleukin 6 induction by compounds disclosed in this specification.
# Compounds diluted in DMSO were transferred to individual wells of a Matrix Technologies clear, V-bottom 384-well plate using ECHO acoustic liquid handling technology (25 nL per well). Human whole-blood samples (25 uL) were added to each well using a CyBio FeliX liquid handling instrument. The plate was shaken on a plate shaker for three min before incubating the reaction mixtures at 37° C. for 20 h. Basel RPMI 1640 medium (supplemented with L-glutamine) was then added to each well (25 uL per well) prior to liberating plasma from each sample by centrifugation (450×g, 5 min, ambient temperature). Treated plasma samples (3 uL) were subsequently transferred to individual wells of a white, shallow, 384-well ProxiPlate (Perkin Elmer) using the FeliX liquid handling instrument and their interleukin 6 levels were measured using AlphaLISA technology as described by the manufacturer, PerkinElmer. Data analyses software was used to determine compound EC50 values where the baseline was established using average DMSO values and 100% induction established using reference compound values at the highest concentration tested. EC50's can be determined with software such as Graphpad Prism™.
row,SMILES,EC50
1,CCCCOc1nc(N)c2nc(O)n(Cc3ccc(Oc4ccc(CNCCS(C)(=O)=O)cc4)c(F)c3)c2n1 [Ie-07],130 nM
2,CCCCOc1nc(N)c2nc(O)n(Cc3ccc(Oc4ccc(CNCC5CC5)cc4)nc3)c2n1 [Ib-15],64.7 nM
3,CCCCOc1nc(N)c2nc(O)n(Cc3ccc(Oc4ccc(CNC)cc4)nc3)c2n1 [Ib-02],29.6 nM
4,CCCCOc1nc(N)c2nc(O)n(Cc3ccc(Oc4ccc(CNCC(F)F)nc4)nc3)c2n1 [Id-06],100 nM
5,CCCCOc1nc(N)c2nc(O)n(Cc3ccc(Oc4ccc(CNCCC#N)cc4)nc3)c2n1 [Ib-16],84.8 nM
6,CCCCOc1nc(N)c2nc(O)n(Cc3ccc(Oc4ccc(CNCC(F)F)cc4)nc3)c2n1 [Ib-13],30.9 nM
7,CCCCOc1nc(N)c2nc(O)n(Cc3ccc(Oc4ccc(CNCC(F)F)cc4)c(F)c3)c2n1 [Ie-04],460 nM
8,CCCCOc1nc(N)c2nc(O)n(Cc3ccc(Oc4cccc(CNCCOC)n4)cc3)c2n1 [Ic-06],28 nM
9,CCCCOc1nc(N)c2nc(O)n(Cc3ccc(Oc4ccc(CO)cc4)nc3)c2n1 [Ib-01],104 nM
10,CCCCOc1nc(N)c2nc(O)n(Cc3ccc(Oc4cccc(CNC5COC5)n4)cc3)c2n1 [Ic-03],78 nM
11,CCCCOc1nc(N)c2nc(O)n(Cc3ccc(Oc4cccc(CNCCO)n4)cc3)c2n1 [Ic-05],44.2 nM
12,CCCCOc1nc(N)c2nc(O)n(Cc3ccc(Nc4ccc(CNCCO)cc4)nc3)c2n1 [If-02],72 nM
13,CCCCOc1nc(N)c2nc(O)n(Cc3ccc(Oc4ccc(CNCC(C)C)nc4)nc3)c2n1 [Id-01],28 nM
14,CCCCOc1nc(N)c2nc(O)n(Cc3ccc(Nc4ccc(CNCCS(C)(=O)=O)cc4)nc3)c2n1 [If-09],68 nM
15,CCCCOc1nc(N)c2nc(O)n(Cc3ccc(Oc4ccc(CN5CCN(C)CC5)cc4)c(F)c3)c2n1 [Ie-10],75 nM
16,CCCCOc1nc(N)c2nc(O)n(Cc3ccc(Oc4ccc(CO)cc4)cc3)c2n1 [Ia-01],506 nM
17,CCCCOc1nc(N)c2nc(O)n(Cc3ccc(Oc4ccc(CNCC(C)C)cc4)c(F)c3)c2n1 [Ie-01],26 nM
18,CCCCOc1nc(N)c2nc(O)n(Cc3ccc(Oc4ccc(CN5CCOCC5)cc4)c(F)c3)c2n1 [Ie-09],250 nM
19,CCCCOc1nc(N)c2nc(O)n(Cc3ccc(Oc4ccc(CNC5COC5)cc4)cc3)c2n1 [Ia-05],31 nM
20,CCCCOc1nc(N)c2nc(O)n(Cc3ccc(Oc4ccc(CNCCO)cc4)c(F)c3)c2n1 [Ie-06],29 nM
21,CCCCOc1nc(N)c2nc(O)n(Cc3ccc(Oc4cccc(CNCCC#N)n4)cc3)c2n1 [Ic-07],133 nM

# Results, then the compound that gave them:
row,EC50,SMILES
1,25 nM,CCCCOc1nc(N)c2nc(O)n(Cc3ccc(Oc4ccc(CNC5CCC5)nc4)nc3)c2n1 [Id-02]
2,24.3 nM,CCCCOc1nc(N)c2nc(O)n(Cc3ccc(Oc4ccc(CNCc5ccccc5)cc4)cc3)c2n1 [Ia-08]
3,24 nM,CCCCOc1nc(N)c2nc(O)n(Cc3ccc(Oc4ccc(CNCCOC)cc4)c(F)c3)c2n1 [Ie-05]
4,24 nM,CCCCOc1nc(N)c2nc(O)n(Cc3ccc(Nc4ccc(CNCC(C)C)cc4)nc3)c2n1 [If-01]
5,21 nM,CCCCOc1nc(N)c2nc(O)n(Cc3ccc(Oc4ccc(CN5CCN(C)CC5)nc4)nc3)c2n1 [Id-08]
6,19 nM,CCCCOc1nc(N)c2nc(O)n(Cc3ccc(Oc4ccc(CN5CCC5)cc4)c(F)c3)c2n1 [Ie-03]
7,19 nM,CCCCOc1nc(N)c2nc(O)n(Cc3ccc(Oc4ccc(CNC5CCC5)cc4)c(F)c3)c2n1 [Ie-02]
8,18.9 nM,CCCCOc1nc(N)c2nc(O)n(Cc3ccc(Oc4ccc(CNCCS(C)(=O)=O)cc4)nc3)c2n1 [Ib-14]
9,17.6 nM,CCCCOc1nc(N)c2nc(O)n(Cc3ccc(Oc4ccc(CNC5CC5)cc4)cc3)c2n1 [Ia-03]
10,17.3 nM,CCCCOc1nc(N)c2nc(O)n(Cc3ccc(Oc4ccc(CNCCO)cc4)cc3)c2n1 [Ia-06]
11,17 nM,CCCCOc1nc(N)c2nc(O)n(Cc3ccc(Nc4ccc(CNCC(F)F)cc4)nc3)c2n1 [If-05]
12,16.1 nM,CCCCOc1nc(N)c2nc(O)n(Cc3ccc(Oc4cccc(CNC5CCC5)n4)cc3)c2n1 [Ic-02]
13,15 nM,CCCCOc1nc(N)c2nc(O)n(Cc3ccc(Oc4ccc(CN5CCOCC5)nc4)nc3)c2n1 [Id-07]
14,14.3 nM,CCCCOc1nc(N)c2nc(O)n(Cc3ccc(Oc4ccc(CNC5CC(F)(F)C5)cc4)nc3)c2n1 [Ib-10]
15,14 nM,CCCCOc1nc(N)c2nc(O)n(Cc3ccc(Oc4ccc(CNC5CCOCC5)nc4)nc3)c2n1 [Id-03]
16,14 nM,CCCCOc1nc(N)c2nc(O)n(Cc3ccc(Nc4ccc(CNC5CCOCC5)cc4)nc3)c2n1 [If-03]
17,13 nM,CCCCOc1nc(N)c2nc(O)n(Cc3ccc(Oc4ccc(CNCCOC)nc4)nc3)c2n1 [Id-04]

row,EC50,SMILES
1,12 nM,CCCCOc1nc(N)c2nc(O)n(Cc3ccc(Oc4ccc(CNCCO)nc4)nc3)c2n1 [Id-05]
2,10.7 nM,CCCCOc1nc(N)c2nc(O)n(Cc3ccc(Oc4ccc(CNCCO)cc4)nc3)c2n1 [Ib-06]
3,10.4 nM,CCCCOc1nc(N)c2nc(O)n(Cc3ccc(Oc4ccc(CNC5CCC5)cc4)cc3)c2n1 [Ia-04]
4,10.1 nM,CCCCOc1nc(N)c2nc(O)n(Cc3ccc(Oc4cccc(CNCC(C)C)n4)cc3)c2n1 [Ic-01]
5,9.57 nM,CCCCOc1nc(N)c2nc(O)n(Cc3ccc(Oc4ccc(CNC5COC5)cc4)nc3)c2n1 [Ib-05]
6,8.14 nM,CCCCOc1nc(N)c2nc(O)n(Cc3ccc(Oc4ccc(CNC5CCCC5)cc4)nc3)c2n1 [Ib-11]
7,7.8 nM,CCCCOc1nc(N)c2nc(O)n(Cc3ccc(Nc4ccc(CNCC(C)(C)O)cc4)nc3)c2n1 [If-07]
8,7.6 nM,CCCCOc1nc(N)c2nc(O)n(Cc3ccc(Oc4ccc(CNC5CCOCC5)cc4)c(F)c3)c2n1 [Ie-08]
9,7.5 nM,CCCCOc1nc(N)c2nc(O)n(Cc3ccc(Oc4ccc(CNC(C)C)cc4)nc3)c2n1 [Ib-03]
10,6.62 nM,CCCCOc1nc(N)c2nc(O)n(Cc3ccc(Oc4ccc(CNCCOC)cc4)cc3)c2n1 [Ia-07]
11,5.91 nM,CCCCOc1nc(N)c2nc(O)n(Cc3ccc(Oc4ccc(CNC5C6CC5C6)cc4)nc3)c2n1 (stereo not drawn) [Ib-09]
12,5.81 nM,CCCCOc1nc(N)c2nc(O)n(Cc3ccc(Oc4ccc(CNCCOC)cc4)nc3)c2n1 [Ib-07]
13,5.11 nM,CCCCOc1nc(N)c2nc(O)n(Cc3ccc(Oc4ccc(CNC5CC5)cc4)nc3)c2n1 [Ib-17]
14,3.8 nM,CCCCOc1nc(N)c2nc(O)n(Cc3ccc(Nc4ccc(CN5CCCC5)cc4)nc3)c2n1 [If-06]
15,3.77 nM,CCCCOc1nc(N)c2nc(O)n(Cc3ccc(Oc4ccc(CNCC(C)C)cc4)nc3)c2n1 [Ib-12]
16,2.5 nM,CCCCOc1nc(N)c2nc(O)n(Cc3ccc(Nc4ccc(CNC5CCC5)cc4)nc3)c2n1 [If-04]
